Assay results published in patent US20230129034A1, “TREATMENT OF DISEASE WITH ESTERS OF SELECTIVE RXR AGONISTS” (Io Therapeutics, Inc., priority 2017, published 2023).
Entries after “also recorded” stand apart in the source; their conditions may differ.

Experiments:
[1] = system: demyelination in C57BL/6J mice; experiment: Cuprizone/rapamycin (CR) chronic 12-week mouse model of toxic demyelination; assay type: in vivo; conditions: 12 weeks CR; for # of Myelinated Axons per CC unit (PPD staining, corpus callosum) / % Area of Myelin Cortex (PLP staining) / % Area of Myelin Hippocampus (PLP staining): then 10 mg/kg/d PO daily for 6 weeks, with or without 20 ng/g thyroxine SC
Procedure: Mice are fed a cuprizone-containing diet and injected with rapamycin daily (CR regimen) for 12 weeks to induce demyelination. One group of animals is sacrificed at 12 weeks to evaluate demyelination. […] At the end of the study, all mice are sacrificed and one or more of the following parameters are determined: (1) PPD (p-phenylenediamine) staining to visualize and quantify myelinated axons in corpus callosum to assess demyelination and remyelination in white matter; (2) myelin proteolipid protein (PLP) immunostaining to visualize and quantify myelin in hippocampus to assess demyelination and remyelination in grey matter (hippocampus); (3) PLP immunostaining to visualize and quantify myelin in cortex to assess demyelination and remyelination in grey matter (cortex); (4) PDGFRα immunostaining to visualize and quantify OPCs in corpus callosum; (5) GSTpi immunostaining to visualize and quantify oligodendrocytes in corpus callosum; (6) Iba1 (ionized calcium-binding adapter molecule 1) and/or Mac-2 (galectin-3) immunostaining to visualize and quantify total and activated microglia in corpus callosum; (7) GFAP (glial fibrillary acidic protein) immunostaining to visualize and quantify astrocytes in corpus callosum To assess astroglial activation; and (8) 3D-electron microscopy in corpus callosum to assess ratio of myelinated and non-myelinated axons, internodal length, G-ratio, mitochondrial changes, etc.
The animals (8 week-old male C57BL/6J mice) are subjected to cuprizone diet plus rapamycin injections (CR) for 12 weeks to induce demyelination in white matter (CC, corpus callosum). After 12 weeks, CR is discontinued and subsets of animals are treated daily for 6 weeks with one of the following treatment regimens:
All animals are sacrificed after 12 weeks of CR (Group 7) or after further 6 weeks of treatment (Groups 1-6) to evaluate myelin in white matter (corpus callosum) and gray matter (hippocampus and cortex). In addition, the size of myelinated axons are quantified and the large myelinated axons are further assessed by 3D-electron microscopy (3D-EM).
A total of 92 mice are included in the study. Eight week-old male C57BL/6J mice are placed on a rodent chow (Harlan) containing 0.3% cuprizone for 12 weeks. These mice are also injected with rapamycin (approximately 10 mg/kg body weight at the volume of 0.1 ml, IP) daily for 12 weeks. Eight mice are maintained on a normal diet. The weight of the animals is monitored on a weekly-basis.
The drug is reconstituted in vehicle (DMSO/PBS/Tween) and fresh drug is made up once a week and administered orally once daily. […] Similarly, subgroups (n=12) of CR treated mice are treated with oral IRX4204EE and subcutaneous thyroxine vehicle (Group 5) or oral IRX4204EE and subcutaneous thyroxine (Group 6) at the indicated doses.
Epon-PPD stained sections of corpus callosum are evaluated in bright field at 10X, 20X and 63X (oil objective). A total of 4 images (63X) per animal are collected in the region of interest (ROI), which is a specific region between the rostral corpus callosum and the junction of the fornix. The images outside the ROI are not scored. The images are then evaluated using NIH ImageJ (aka. Fiji) to identify and count myelinated axons in the region of interest. The numbers of PPD-stained myelinated axons in all of the counting boxes for each image are counted. Using the polygon selection tool, the margins of the corpus callosum in each slice are identified and ImageJ is then used to calculate the total area of the CC in that slice. The total number of myelinated axons in a specific area of the corpus callosum is then calculated by dividing the total area of the CC by the total area of the counting boxes and multiplying by the combined number of myelinated axons that are counted in all of the counting boxes for each image. […]

EAE in B6 mice = experiment: EAE dose titration experiment in B6 mice with spleen and CNS cell analysis; assay type: in vivo; conditions: for EAE disease overall, dose titration: 50 µg, 100 µg or 200 µg every day from day 8
Procedure: A dose titration experiment was also conducted in EAE mice. EAE was induced in 28 B6 mice with MOG/CFA and PT as above. Mice were scored on day 7 as indicated above and divided into groups by score so means are as equal as possible.
At the completion of the experiment, the vehicle control and 200 µg/day groups were euthanized and spleen and CNS samples obtained.

[2] = system: oligodendrocyte precursor cells (OPCs); experiment: Oligodendrocyte precursor cell differentiation (PLP-EGFP OPCs); assay type: cell-based, mouse; conditions: for OPC differentiation into oligodendrocytes (EGFP positive cells): compared to negative control (DMSO)
Excerpt: OPCs were generated from a neurosphere culture of E14.5 PLP-EGFP (on C57BL/6J background) mouse brains. […] The EGFP expressing cells were quantified with Cellomics Neuronal Profiling Algorithm.
The EGFP expressing cells in controls and all compounds were quantified with Cellomics Neuronal Profiling Algorithm.

[3] = system: CNS infiltrating leukocytes in C57BL/6 (B6) mice; experiment: CNS infiltrating cells in EAE B6 mice (flow cytometry, day 20); assay type: in vivo; conditions: day 20 after immunization
Procedure: To determine whether a RXR agonist can reduce central nervous system (CNS) infiltrating cells, C57BL/6 (B6) mice were treated as described in Example 6. On day 20 after immunization, mice were sacrificed and perfused with phosphate buffered saline (PBS). Brain and spinal cord tissue was isolated, digested with DNase and LIBERASE DL® (Roche Diagnostics, Indianapolis, IN) for 30 minutes, and homogenized through 70 micron nylon mesh filters. Resulting cells were placed over a Percoll gradient to remove myelin. The remaining cells (microglia and CNS infiltrating cells) were counted, stained for molecules of interest, and run on a flow cytometer. Based on the frequencies obtained by FACS of these cell populations, total cell numbers of CNS infiltrating leukocytes expressing CD45, including CD4^+ T cells and CD11c^+ CD11b^+ myeloid dendritic cells (DC), were calculated.

[4] = Plasma and brain concentrations after intravenous injection in ICR mice (LC-MS/MS); assay type: in vivo; conditions: 1 mg/kg IV
Procedure: The compounds were dissolved in 4% DMSO, 1% Tween80 and 95% PBS(v/v) at a concentration of 0.2 mg/ml. Each mouse was injected with a volume to deliver 1 mg/kg of the compound (corresponding to 3 mg/m^2).
At designated time points (0.5, 1.5, and 3 hr), with the mice under terminal isofluorane anesthesia, systemic blood sample (ca 0.4-0.5 mL) were collected by cardiac puncture into micro-tube containing sodium EDTA-K2 as anti-coagulant (n=3 at each time point). Blood samples from the IRX4204EE arm of the study had appropriate esterase inhibitors added. The blood was centrifuged at 13000 rpm for 3 min at 4° C. to obtain plasma and protein was precipitated with acetonitrile prior to being assayed for compound content. The brain was removed and transferred to a pre-weighed vessel for weight determination. Brain tissue was homogenized in five volumes of PBS, centrifuged, and the supernatant assayed for compound content. […] The same standard curve was used to quantitate analyte concentrations in both brain and plasma.

[5] = 200 µg/day, restimulation with PMA/Ionomycin

CCOC(=O)/C=C(C)/C=C/[C@@H]1C[C@]1(C)c1ccc2c(c1)C(C)(C)CCC2(C)C [IRX4204EE, 3,7-dimethyl-6(S),7(S)-methano,7-[1,1,4,4-tetramethyl-1,2,3,4-tetrahydronaphth-7-yl]2(E),4(E) heptadienoic ethyl ester]
# of Myelinated Axons per CC unit (PPD staining, corpus callosum) [1]: 4300 | % Area of Myelin Cortex (PLP staining) [1]: 85% | % Area of Myelin Hippocampus (PLP staining) [1]: 68% | increase in myelin volume compared to vehicles control ([1]; then 6 weeks treatment): approximately 25% | remyelination and neuroprotection activity relative to IRX4204 groups ([1]; then 6 weeks treatment): greater remyelination and neuroprotection activity than the corresponding IRX4204 treated groups | EAE disease overall, dose titration (EAE in B6 mice): more active than IRX4204 at each of the doses tested | OPC differentiation into oligodendrocytes (EGFP positive cells) [2]: essentially no activity; also recorded: considerably less active | infiltration of CD4+ cells into the CNS [3]: even greater reduction | infiltration of CD11c+ CD11b+ cells (myeloid DC) into the CNS [3]: even greater reduction | concentration of the ester in the brain over the course of the experiment ([4]; 0.5 to 3 hr): rose slightly | concentration of the ester in blood compared with brain ([4]; 3 hour time point): approximately the same | blood concentration of the ester itself relative to IRX4204 ([4]; 3 hours): about 5 fold | concentration of IRX4204 in the blood from the ester form compared with the free acid form ([4]; 3 hours): about the same | blood concentration of IRX4204 due to conversion of IRX4204EE relative to that due to IV injection of IRX4204 ([4]; half-hour time point): about one sixth

CC(/C=C/[C@@H]1C[C@]1(C)c1ccc2c(c1)C(C)(C)CCC2(C)C)=C\C(=O)O [IRX4204, 3,7-dimethyl-6(S),7(S)-methano,7-[1,1,4,4-tetramethyl-1,2,3,4-tetrahydronaphth-7-yl]2(E),4(E) heptadienoic acid]
# of Myelinated Axons per CC unit (PPD staining, corpus callosum) [1]: 1570 | % Area of Myelin Cortex (PLP staining) [1]: 48% | % Area of Myelin Hippocampus (PLP staining) [1]: 38% | average diameter of myelinated axons ([1]; then 6 weeks treatment): approximately 0.9 µm | increase in myelin volume compared to vehicles control ([1]; then 6 weeks treatment): approximately 15% | EAE disease overall, dose titration (EAE in B6 mice): significantly less disease overall | CCR6 expression on CD4 T cells, spleen (EAE in B6 mice; 200 µg/day): lowered | co-expression of IFNg and IL-17A by CD4 T cells in CNS (EAE in B6 mice; 200 µg/day): not significantly different between groups | frequency of CD4+ CD25hi cells, spleen (EAE in B6 mice; 200 µg/day): not altered | number of CD4+ CD25hi cells, spleen (EAE in B6 mice; 200 µg/day): reduced | total number of effector and memory CD4 T cells (CD44), spleen (EAE in B6 mice; 200 µg/day): decreased | total number of infiltrating CD4 T cells in the CNS (EAE in B6 mice; 200 µg/day): reduced | total number of recently activated CD4 T cells (CD69 and CD44), spleen (EAE in B6 mice; 200 µg/day): also decreased | IFNγ production by CNS infiltrating lymphocytes (EAE in B6 mice; [5]): significantly reduced | TNF production by CNS infiltrating lymphocytes (EAE in B6 mice; [5]): significantly reduced | OPC differentiation into oligodendrocytes by concentration ([2]; all tested concentrations but the lowest concentration (1^-6 µM)): significant increase in OPC differentiation | total cell number and pyknotic cells ([2]; compared to controls): did not show any differences | OPC differentiation into oligodendrocytes (EGFP positive cells) [2]: promotes OPC differentiation | infiltration of CD4+ cells into the CNS [3]: significant reduction | infiltration of CD11c+ CD11b+ cells (myeloid DC) into the CNS [3]: significant reduction | concentration at 3 h ([4]; male, ICR, mouse, brain, 3 hours post-administration): 7.9 to 8.2 nM
